Here are results for one compound from ChEMBL document CHEMBL4800731, “Data for DCP probe JNJ-65355394” (2021).

Each structure is given as a SMILES string.

Assay [1] concerns the target Galanin receptor type 2 (Homo sapiens) (UniProt O43603). Briefly: hGAL2 Cerep panel.
The target in assay [2] is Alpha-1A adrenergic receptor (Rattus norvegicus) (UniProt P43140). Briefly: rAa1 Cerep panel.
The target of assay [3] is 5-hydroxytryptamine receptor 5A (Homo sapiens) (UniProt P47898). In words: h5HT5A Cerep panel.
5-hydroxytryptamine receptor 5A (Homo sapiens), sequence (P47898 whole entry): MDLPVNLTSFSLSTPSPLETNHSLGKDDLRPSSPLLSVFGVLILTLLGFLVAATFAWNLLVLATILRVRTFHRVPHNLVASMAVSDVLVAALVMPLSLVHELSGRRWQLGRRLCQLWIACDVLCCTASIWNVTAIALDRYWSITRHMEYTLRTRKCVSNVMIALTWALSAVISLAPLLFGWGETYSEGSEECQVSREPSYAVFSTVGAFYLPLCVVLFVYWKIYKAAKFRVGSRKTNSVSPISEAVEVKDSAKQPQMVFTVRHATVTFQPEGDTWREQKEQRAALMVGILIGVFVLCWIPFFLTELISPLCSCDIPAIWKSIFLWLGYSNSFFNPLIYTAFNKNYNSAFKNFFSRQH
In assay [4] the target is 5-hydroxytryptamine receptor 7 (Homo sapiens) (UniProt P34969). In words: h5HT7 Cerep panel.
5-hydroxytryptamine receptor 7 (Homo sapiens), sequence (P34969 whole entry): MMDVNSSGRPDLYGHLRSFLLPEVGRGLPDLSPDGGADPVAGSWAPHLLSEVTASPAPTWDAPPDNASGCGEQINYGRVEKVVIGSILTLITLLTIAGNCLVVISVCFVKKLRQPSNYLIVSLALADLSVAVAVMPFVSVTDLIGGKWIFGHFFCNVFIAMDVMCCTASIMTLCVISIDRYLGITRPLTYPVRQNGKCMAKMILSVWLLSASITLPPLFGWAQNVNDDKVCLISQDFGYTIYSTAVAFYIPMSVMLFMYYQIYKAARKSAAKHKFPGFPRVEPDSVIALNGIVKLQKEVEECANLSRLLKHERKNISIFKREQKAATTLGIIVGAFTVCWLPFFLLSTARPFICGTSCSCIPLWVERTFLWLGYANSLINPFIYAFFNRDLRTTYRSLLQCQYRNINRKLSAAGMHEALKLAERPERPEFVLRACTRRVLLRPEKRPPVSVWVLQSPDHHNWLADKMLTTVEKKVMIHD
Assay [5] addresses D(1B) dopamine receptor (Homo sapiens) (UniProt P21918). The following applies: Compound concentration 10.0 uM.

D(1B) dopamine receptor (Homo sapiens), sequence (P21918 whole entry): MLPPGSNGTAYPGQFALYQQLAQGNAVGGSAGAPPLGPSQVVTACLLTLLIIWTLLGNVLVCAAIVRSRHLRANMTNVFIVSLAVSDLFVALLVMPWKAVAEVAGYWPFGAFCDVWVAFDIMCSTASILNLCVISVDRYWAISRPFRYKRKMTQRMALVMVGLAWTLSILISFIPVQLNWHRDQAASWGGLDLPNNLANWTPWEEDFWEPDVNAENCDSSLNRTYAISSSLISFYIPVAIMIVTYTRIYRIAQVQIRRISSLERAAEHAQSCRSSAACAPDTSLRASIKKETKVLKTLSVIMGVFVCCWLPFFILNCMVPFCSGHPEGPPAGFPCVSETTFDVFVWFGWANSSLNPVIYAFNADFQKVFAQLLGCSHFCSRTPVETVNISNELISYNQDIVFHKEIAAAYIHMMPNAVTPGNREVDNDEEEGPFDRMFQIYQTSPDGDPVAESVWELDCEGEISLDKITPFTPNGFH
Galanin receptor type 2 (Homo sapiens), sequence (O43603 whole entry): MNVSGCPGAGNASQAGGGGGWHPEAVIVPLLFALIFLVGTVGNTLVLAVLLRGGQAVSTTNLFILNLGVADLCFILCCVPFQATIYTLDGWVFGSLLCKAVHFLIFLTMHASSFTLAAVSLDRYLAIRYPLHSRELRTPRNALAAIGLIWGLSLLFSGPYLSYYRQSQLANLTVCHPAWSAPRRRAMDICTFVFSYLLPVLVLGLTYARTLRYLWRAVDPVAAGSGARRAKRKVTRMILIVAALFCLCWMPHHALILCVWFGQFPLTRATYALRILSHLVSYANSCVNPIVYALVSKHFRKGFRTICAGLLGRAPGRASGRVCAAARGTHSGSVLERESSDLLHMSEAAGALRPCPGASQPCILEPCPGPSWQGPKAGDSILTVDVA
Alpha-1A adrenergic receptor (Rattus norvegicus), sequence (P43140 whole entry): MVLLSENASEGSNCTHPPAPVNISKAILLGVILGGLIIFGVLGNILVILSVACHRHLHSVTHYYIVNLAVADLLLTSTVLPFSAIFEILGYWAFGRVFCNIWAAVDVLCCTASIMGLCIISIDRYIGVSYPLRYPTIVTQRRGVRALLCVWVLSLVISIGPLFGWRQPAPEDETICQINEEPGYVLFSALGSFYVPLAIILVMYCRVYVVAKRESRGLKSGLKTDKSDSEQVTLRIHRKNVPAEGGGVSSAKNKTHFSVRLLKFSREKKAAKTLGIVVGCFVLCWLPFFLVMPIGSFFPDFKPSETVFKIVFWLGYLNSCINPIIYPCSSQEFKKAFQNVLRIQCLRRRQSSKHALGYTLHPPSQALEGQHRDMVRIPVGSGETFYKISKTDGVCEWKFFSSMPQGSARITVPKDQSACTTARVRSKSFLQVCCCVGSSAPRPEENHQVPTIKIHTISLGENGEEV

Take `CC(=O)Nc1ncc(CN2CCC[C@H](Cc3cc(C)nc(C)c3)C2)s1` [JNJ-65355394]: the effect in assay [1] is 1.4%; in assay [2], 19.5%; in assay [3], -7.65%; in assay [4], -1.65%. Besides, the inhibition (as a rule, the share of the control response that was lost under treatment) in assay [5] was 7.69%.
